Assay results published in patent EP1655289A1, “Quinazoline derivatives, process for their preparation, their use as antimitotics and pharmaceutical compositions comprising said derivatives” (EMBL, priority 2004, dated 2006).
Where two headings read alike, the source gives them in different places.

Columns and labels:
HeLa cells [1] = experiment: FACS cell cycle analysis of HeLa cells after 18 h inhibitor treatment; format: cell-based, human; conditions: for cells in G2/M: FACS (control 23%)
Method: (§1) Hela cells were cultured in DMEM medium supplemented with 10 % (v/v) FCS to 60 % confluency. The culture medium was then exchanged by fresh medium containing different inhibitor or DMSO and the cells placed at 37 °C in 5 % CO2 for 18 h. The final volume of inhibitor dissolved in DMSO in the medium was always equal to or less than 0.1 % (v/v)For wash out experiments, cells were treated as described above. After 18 h cells were washed with phosphate buffered saline (PBS), covered with fresh medium and cultured for another 24 h at 37 °C in 5 % CO2.
HeLa cells were incubated for 18 hours in medium supplemented with various concentrations of either of the three compounds, monastrol or DMSO. Cells were then fixed and analyzed by FACS and immunofluorescence.
(§2) For FACS analysis, cells were scraped off the culture plate after inhibitor treatment or after wash-out and collected by centrifugation in a Heraeus Megafuge 1.0R at 1200 rpm for 5 min. The cell pellet was washed once with 5 ml PBS and then resuspended in 0.5 ml PBS. The cells were fixed by addition of 4 ml 70 % (v/v) ethanol and incubation overnight at -20 °C. Fixed cells were centrifuges at 1200 rpm for 5 min, washed with 5 ml PBS, and resuspended in 1ml PI solution (10 µg/ml propidium iodide, 100 µg/ml RNAse A, 0.05 % Triton X100 in PBS). After 30 min at 37 °C in the dark, cells were analyzed by fluorescence-activated cell sorting (FACS).

Eg5 = biological target: T1, Eg5 (Xenopus laevis, UniProt P28025); experiment: Microtubule-stimulated ATPase activity of Eg5 (EnzChek Phosphate Assay), IC50 determination; format: biochemical; conditions: for potency as inhibitor of Eg5 compared to monastrol: ratio of IC50 values versus monastrol
T1 construct: Xenopus laevis Eg5 corresponding to amino acids 1 to 487; made in house; host or cells: E. coli M15(pREP4)
T1 sequence (P28025 1-487): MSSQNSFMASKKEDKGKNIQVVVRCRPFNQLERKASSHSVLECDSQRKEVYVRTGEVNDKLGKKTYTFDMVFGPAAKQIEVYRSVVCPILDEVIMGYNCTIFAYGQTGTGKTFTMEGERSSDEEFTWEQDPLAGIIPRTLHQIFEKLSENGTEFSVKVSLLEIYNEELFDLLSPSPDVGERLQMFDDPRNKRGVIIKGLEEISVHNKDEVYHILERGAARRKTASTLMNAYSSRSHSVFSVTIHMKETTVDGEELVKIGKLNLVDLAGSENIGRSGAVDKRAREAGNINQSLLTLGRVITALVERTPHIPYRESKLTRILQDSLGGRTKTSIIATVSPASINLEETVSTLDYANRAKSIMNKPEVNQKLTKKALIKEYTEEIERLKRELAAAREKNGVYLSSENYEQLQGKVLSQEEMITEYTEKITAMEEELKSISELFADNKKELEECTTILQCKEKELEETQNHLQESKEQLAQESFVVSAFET
Method: The protein was expressed in E. coli M15(pREP4) for 5 h at 18 °C in LB containing 1 mM isopropylthio-β-D-galactopyranoside (IPTG), 100 µg/ml ampicillin, 25 µg/ml kanamycin, and 2% (v/v) ethanol. The harvested cells were lysed in buffer A (50 mM KPi, 100 mM NaCl, 0.1 mM MgATP protease inhibitors (Roche), pH 7.0) with 5 mM mercaptoethanol (ME). The clarified lysate was loaded onto a HIS-Select Cobalt Affi Gel column (Sigma), washed with buffer A supplemented with 10 mM imidazole, 2 mM ME, 10 % (w/v) glycerol, and eluted with 150 mM imidazole, 50 mM KCI, 10 % (w/v) glycerol, 10 mM ME, pH 7.3. The buffer was exchanged to 50 mM 3-(N-morpholino)propanesulfonic acid/KOH, 50 mM KCI, 1 mM MgCl2, 1 mM EGTA, 10 mM ME, 20 % (w/v) glycerol, pH 7.0 by dialysis. The protein concentration was adjusted to 2 mg/ml (measured by a Bradford assay using bovine serum albumin (BSA) as standard). Eg5487H was frozen in liquid ethane and stored in liquid nitrogen.
Polymerized microtubules were then stabilized by addition of 1 µl 10 mM paclitaxel (Sigma) in DMSO and incubated at 37 °C for another 20 minutes. The suspension was centrifuged at 70000 rpm at 30 °C for 30 minutes in a TLA100 rotor (Beckman). The resulting microtubule pellet was resuspended in 60 µl assay buffer (10 mM imidazole/acetate, 5 mM K-acetate, 2 mM EGTA and 4 mM Mg-acetate, pH 6.8.) supplemented with 20 µM paclitaxel at 37 °C. This microtubule suspension was stored at room temperature. The final concentration was 80 µM polymerized tubulin as determined by Bradford using BSA as a standard.
Final concentrations were 40 nM Eg5487H, 4 µM microtubules (tubulin dimer concentration as determined by Bradford using BSA as standard), and 1 mM MgATP. The ATPase activity was measured as an increase of absorbance at 365 nm within 2 h at room temperature. 1 % (v/v) inhibitor in DMSO at different concentrations (or 1 % (v/v) DMSO as a control) was added at the start of the experiment. At least 4 measurements were performed per condition and the results were then averaged. The microtubule-stimulated activity of Eg5487H was obtained by subtracting background activity (measured with microtubules only in the absence of Eg5487H) from measurements containing Eg5487H and microtubules. The IC50 was determined by assuming non-competitive enzyme inhibition and fitting the theoretically expected dependence of the enzym activity on the inhibitor concentration to the experimental microtubule-stimulated ATPase activities. The equation used for the fit was v = vmax * IC50 / ([inhibitor] + IC50) + vres with v being the measured relative ATPase rate, vmax being the maximum ATPase rate and vres being a residual activity at high inhibitor concentration.

Xenopus egg extract = experiment: Spindle assembly in Xenopus egg extracts; design: species or system Xenopus laevis
Method: Cytostatic factor (CSF)-arrested Xenopus laevis egg extracts were prepared as described previously. Spindle assembly experiments were performed in cycled extracts with sperm nuclei and tetramethylrhodamine labelled tubulin as described. 1 % (v/v) (or less) inhibitor dissolved in DMSO was added to the extract prior to spindle assembly. As control 1% DMSO was added to the extract. Spindles were fixed and centrifuged onto coverslips. The DNA was stained with DAPI. Structures were then visualized by epi-fluorescence microscopy (Zeiss Axiovert 135 equipped with a Roper CoolSnap HQ camera). Spindles and aberrant microtubule structures were then counted.

HeLa cells [2] = experiment: Wash-out experiment in HeLa cells (18 h treatment, 24 h fresh medium); format: cell-based, human; conditions: 24 h in fresh medium
Method: as §1, §2
One useful characteristic of monastrol is that is non-toxic for the cells when applied transiently; once washed out cells resume mitosis. […]

[3] = microtubule-stimulated ATPase activity, 40 nM Eg5487H, 4 µM microtubules, 1 mM MgATP, read-out: IC50
[4] = 10 µM added to Xenopus egg extract

| Structure (SMILES) | cells in G2/M (HeLa cells [1]; 10 µM) [%] | IC50 (Eg5; [3]) [nM] | potency as inhibitor of Eg5 compared to monastrol (Eg5) | bipolar spindle formation (Xenopus egg extract; [4]) | cell cycle distribution (HeLa cells [1]; 0.1 µM, FACS) | cells in G2/M (HeLa cells [1]; 0.5 µM) [%] | cells in G2/M (HeLa cells [1]; 1 µM) [%] | IC50 (Eg5) [nM] | bipolar spindle formation (Xenopus egg extract; 1 µM added to Xenopus egg extract) | cells in G2/M (HeLa cells [1]; 100 µM) [%] | toxicity for the cells when applied transiently (HeLa cells [2]) |
| --- | --- | --- | --- | --- | --- | --- | --- | --- | --- | --- | --- |
| O=C1CCCC2=C1C(c1cccc(O)c1)NC(=S)N2 (stereo not drawn) [Example 1, 4-(3-Hydroxyphenyl)-5-oxo-3,4,5,6,7,8-hexahydroquinazoline-2(1H)-thione] | 77 | 2000 | more than ten times more potent | inhibited bipolar spindle formation | – | – | – | – | – | – | – |
| CC1(C)CC(=O)C2=C(C1)NC(=S)NC2c1cccc(O)c1 (stereo not drawn) [Example 2, 7,7-Dimethyl-4-(3-hydroxyphenyl)-5-oxo-3,4,5,6,7,8-hexahydroquinazoline-2(1H)-thione] | – | – | more than 100 times | – | No cell cycle distribution abnormalities | 47 | 75 | 200 | inhibited bipolar spindle formation | – | – |
| Oc1cccc(C2NC(=S)NC3=C2C(O)CCC3)c1 (stereo not drawn) [Example 3, 4-(3-Hydroxyphenyl)-5-hydroxy-3,4,5,6,7,8-hexahydroquinazoline-2(1H)-thione] | 77 | 2000 | more than ten times more potent | inhibited bipolar spindle formation | – | – | – | – | – | – | – |
| CCOC(=O)C1=C(C)NC(=S)NC1c1cccc(O)c1 (stereo not drawn) [monastrol, 4-(3-hydroxyphenyl)-5-ethoxycarbonyl-6-methyl-3,4-dihydropyrimidin-2(1H), reference compound] | 31 | – | – | – | – | – | – | 30000 | – | 74 | non-toxic |
